Reference: patent US9512396B2, “In vitro microphysiological system for high throughput 3D tissue organization and biological function” (The Trustees of the University of Pennsylvania, priority 2011, dated 2016)
Read-outs that look alike come from different tables or passages of the source.

System: cardiac microtissues (CMTs)
Type: cell-based
Settings: measured after 1 h
Experimental: In a first example, cardiomyocytes were isolated from 0-1 day neonatal Sprague Dawley rat pups by a Trypsin digestion protocol as previously described. The resulting cell population was immediately subjected to CMT generation. CMTs were cultured in high glucose DMEM (Mediatech, Inc.) containing 10% horse serum (Invitrogen), 2% chick embryo extract (Charles River Laboratories International, Inc.), 4 mM L-glutamine, 1 mM sodium pyruvate, 100 units/mL penicillin, and […] streptomycin (all from Invitrogen). Cell culture medium was changed every day. Stock solution of Isoproterenol (Sigma-Aldrich) of 10 mM was made in MilliQ water and stock solution of Digoxin (GlaxoSmithKline) of 10 mM was made in DMSO. Calcium staining was obtained by incubating CMTs for 1 h with the acetoxymethyl ester of fluo-3 (fluo-3/(AM), Invitrogen) as a fluorescent dye at 2 μM in PBS with 0.02% of Pluronic F127 (BASF).
Before cell seeding, the PDMS templates were sterilized in 70% ethanol followed by UV irradiation for 15 min and treated with 0.2% Pluronic F127 for 60 min to reduce cell adhesion. A reconstitution mixture, consisting of 1 mg/mL or 2.5 mg/mL liquid neutralized collagen I from rat tail (BO Biosciences) and 0.5 mg/mL fibrinogen from bovine plasma (Sigma-Aldrich), was then added to the surface of the substrates on ice and templates were degassed under vacuum to remove bubbles in the liquid. A cooled suspension of half a million cells within reconstitution mixture was then added to the substrate and the entire assembly was centrifuged to drive the cells into the micropatterned wells, resulting in around 500 cells per well. Excess collagen/fibrinogen and cells were removed by de-wetting the surface of the substrate before incubating at 37° C. to induce collagen polymerization. The appropriate media was then added to each substrate. By using a live/dead cell viability assay (Invitrogen), cell viability over time was estimated.
For quantifying microtissue forces, brightfield and fluorescence images were taken at 20 Hz within each template, using a Photometrics Evolve EMCCOcamera (Photometrics), and an A-Plan 10× objective on a Nikon Eclipse Ti (Nikon Instruments Inc.) equipped with a live cell incubator. Only tissues that were uniformly anchored to the tips of the cantilevers were included in the analysis. The displacement of fluorescent micro-beads at the top of the cantilevers was then tracked with using the SpotTracker plug-in in ImageJ (National Institutes of Health).
In one example, it was also examined whether CMTs responded appropriately to two cardiac compounds, isoproterenol and digoxin. To study the dose-response of the CMTs to these compounds, their concentrations were varied from 1 nM to 10 μM and the dynamic stress and the spontaneous frequency of CMTs were measured after 1 h (FIG. 13). Isoproterenol can be used as a β-adrenergic agonist with a positive chronotropic effect whereas digoxin is a cardiac glycoside that inhibits Na+/K+-ATPase (sodium pump), activates sarcoplasmic reticulum Ca2+-release channels and induces positive inotropic effects.

Compound | maximal stress increase (1 μM) [%] | chronotropic effect (spontaneous frequency) (10 μM) | inotropic effect (dynamic stress) (10 μM) | spontaneous frequency (10 μM) | inotropic response (dynamic stress) (between 1 nM and 1 μM) | effect on dynamic stress and spontaneous frequency of CMTs (1 nM) | change of spontaneous frequency (1 μM) | change of spontaneous frequency (10 μM) | inotropic effect (contractility, dynamic stress) (1 and 10 nM (so in the source)) | chronotropic action (spontaneous frequency) (1 and 10 μM) | inotropic action (contractility, dynamic stress) (10 and 100 nM)
C[C@H]1O[C@@H](O[C@H]2[C@@H](O)C[C@H](O[C@H]3[C@@H](O)C[C@H](O[C@H]4CC[C@@]5(C)[C@H](CC[C@@H]6[C@@H]5C[C@@H](O)[C@]5(C)[C@@H](C7=CC(=O)OC7)CC[C@]65O)C4)O[C@@H]3C)O[C@@H]2C)C[C@H](O)[C@@H]1O [Digoxin] | 22±4 | strong negative chronotropic effect | almost no inotropic effect | under 0.04±0.01 Hz | positive inotropic response | – | – | – | – | – | –
CC(C)NCC(O)c1ccc(O)c(O)c1 (centres unmarked) [Isoproterenol] | – | – | – | – | – | no observable effect | doubling | tripling | slight negative inotropic effect | positive chronotropic action | slight positive inotropic action
